The record followed here is US11648248B1 (King Abdulaziz University, priority 2022, dated 2023).

What all share (assay): MIC broth microdilution, initial screening
Common to all, as to type: cell-based
For orientation: In broth dilution the organism is exposed to a series of concentrations in liquid medium.

In one assay the test system is C. albicans (ATCC 64124). The following applies: Candida albicans, read-out: minimum inhibitory concentration (MIC) C. albicans (ATCC 64124). The protocol:
(§1) The minimum inhibitory concentrations (MICs) of the tested compounds and control drugs (linezolid, vancomycin, gentamicin (antibiotics) and fluconazole and 5-fluorocytosine (5-FC) (antifungal drugs)) were determined using the broth microdilution method, according to guidelines outlined by the Clinical and Laboratory Standards Institute (CLSI, Clinical and Laboratory Standards Institute, Methods for antimicrobial susceptibility testing of anaerobic bacteria; approved standard, M11-A8. 8th ed., 2012; CLSI, Clinical and Laboratory Standards Institute. M27-A3 Reference Method for Broth Dilution Antifungal Susceptibility Testing of Yeasts; Approved Standard—Third Edition, Wayne, Pa., 2008) against clinically-relevant bacterial (methicillin-resistant Staphylococcus aureus (MRSA), Escherichia coli, and C. difficile strains) and fungal (Candida albicans) strains. S. aureus and E. coli were grown aerobically overnight on tryptone soy agar plates at 37° C. C. difficile was grown anaerobically on brain heart infusion supplemented agar at 37° C. for 48 hours. C. albicans was grown aerobically overnight on yeast peptone dextrose (YPD) agar plate at 35° C. Afterwards, a bacterial solution equivalent to 0.5 McFarland standard was prepared and diluted in cation-adjusted Mueller-Hinton broth (CAMHB) (for S. aureus and E. coli) to achieve a bacterial concentration of about 5×10^5 CFU/mL. C. difficile was diluted in brain heart infusion supplemented broth, supplemented with yeast extract, hemin and vitamin K to achieve a bacterial concentration of about 5×10^5 CFU/mL. C. albicans was diluted in Roswell Park Memorial Institute (RPMI 1640) medium with glutamine and without bicarbonate (GIBCO by Life Technologies, Green Island, N.Y., USA) which was buffered to pH 7.0 with 0.165 M of [3-(N-morpholino) propanesulfonic acid] (MOPS) (DOT Scientific Inc., Burton, Mich., USA) to achieve a fungal concentration of about 1.5×10^3 CFU/mL. Compounds and control drugs were added in the first row of the 96-well plates and serially diluted with the corresponding media containing bacteria. Plates were then incubated aerobically at 37° C. for 18-20 hours (for S. aureus and E. coli). C. difficile was incubated anaerobically at 37° C. for 48 hours. C. albicans was incubated aerobically at 37° C. for 24 hours.
(§2) The minimum inhibitory concentrations (MICs) of the tested compounds and control drugs; linezolid, vancomycin, gentamicin (antibiotics) and fluconazole and 5-fluorocytosine (5-FC) (antifungal drugs) were determined using the broth microdilution method, according to guidelines outlined by the Clinical and Laboratory Standards Institute (CLSI)^1, 2, 3 against clinically-relevant bacterial (methicillin-resistant Staphylococcus aureus (MRSA), Escherichia coli and Clostridium difficile strains) and fungal (Candida albicans) strain. S. aureus and E. coli were grown aerobically overnight on tryptone soy agar plates at 37° C. C. difficile was grown anaerobically on brain heart infusion supplemented agar at 37° C. for 48 hours. C. albicans was grown aerobically overnight on yeast peptone dextrose (YPD) agar plate at 35° C. Afterwards, a bacterial solution equivalent to 0.5 McFarland standard was prepared and diluted in cation-adjusted Mueller-Hinton broth (CAMHB) (for S. aureus and E. coli) to achieve a bacterial concentration of about 5×10^5 CFU/mL. C. difficile was diluted in brain heart infusion supplemented broth, supplemented with yeast extract, hemin and vitamin K to achieve a bacterial concentration of about 5×10^5 CFU/mL. C. albicans was diluted in Roswell Park Memorial Institute (RPMI 1640) medium with glutamine and without bicarbonate (GIBCO by Life Technologies, Green Island, N.Y., USA) which was buffered to pH 7.0 with 0.165 M of [3-(N-morpholino) propanesulfonic acid]

Assay [1] has as its system Clostridium difficile (ATCC-BAA1870). The following applies: anaerobic, 48 hours; for MIC: Clostridioides difficile, ATCCBAA1870, 48 h, read-out: minimum inhibitory concentration (MIC) C. difficile (ATCC-BAA1870). The protocol: as §1, §2
The subject of assay [2] is Methicillin-resistant Staphylococcus aureus NRS384 (MRSA USA300). On the procedure: as §1, §2
Assay [3] concerns Escherichia coli BW25113 (wild-type). The following applies: for MIC: Escherichia coli, E. coli BW25113, 18-20 hours, read-out: minimum inhibitory concentration (MIC) E. coli (Wild-type). The protocol: as §1, §2
In assay [4] the test system is Escherichia coli JW55031 (TolC mutant). The following applies: for MIC: Escherichia coli, read-out: minimum inhibitory concentration (MIC) E. coli (TolC mutant), E. coli JW55031, 18-20 hours. On the procedure:
as §1, §2

Setting [5] is: read-out: minimum inhibitory concentration (MIC) S. aureus (MRSA USA300), MRSA NRS384 (USA300), broth microdilution, 18-20 hours.

Converted amounts (≈) assume the structure as drawn. Like-named read-outs stand apart in the source and are kept apart here.

Turning to `OC(Cn1cncn1)(Cn1cncn1)c1ccc(F)cc1F` [Fluconazole, reference compound], in the assay on C. albicans (ATCC 64124) (ATCC64124, RPMI 1640, 24 hours), the MIC was over 128 µg/mL.

Take `O=C(Nc1cccc(Nc2ccc(=O)[nH]n2)c1)Nc1ccc(Cl)c(Cl)c1` [MY49, 1-(3,4-dichlorophenyl)-3-(3-((6-oxo-1,6-dihydropyridazin-3-yl)amino)phenyl)urea]: the MIC in assay [1] is over 128 µg/mL; in assay [2] (setting [5]), over 128 µg/mL; in assay [3], over 128 µg/mL; in assay [4], over 128 µg/mL; in the assay with C. albicans (ATCC 64124) (ATCC64124, 24 h) it was over 128 µg/mL.

In the case of `Cc1cc(Cl)ccc1NC(=O)Nc1ccc(-c2ccc(=O)[nH]n2)cc1`, the “minimum inhibitory concentration (MIC) C. difficile (ATCC-BAA1870)” value in assay [1] was determined as 64 µg/mL (≈ 180 µM). In addition, the MIC is over 128 µg/mL in assay [2] (MRSA|NRS384|USA300, read-out: minimum inhibitory concentration (MIC) S. aureus (MRSA USA300), MRSA NRS384 (USA300), broth microdilution, 18-20 hours); over 128 µg/mL in assay [3]; 64 µg/mL (≈ 180 µM) in assay [4]; over 128 µg/mL in the assay on C. albicans (ATCC 64124) (ATCC64124, 24 h).

As for Gentamicin [reference compound], the “minimum inhibitory concentration (MIC) E. coli (Wild-type)” value in assay [3] (18-20 hours) was 0.5 µg/mL. In addition, the “minimum inhibitory concentration (MIC) E. coli (TolC mutant)” value in assay [4] (E. coli JW55031, 18-20 hours) turned out to be 0.25 µg/mL.

`COc1ccc(NC(=O)Nc2cccc(-c3ccc(=O)[nH]n3)c2)cc1` [MY33, 1-(4-methoxyphenyl)-3-(3-(6-oxo-1,6-dihydropyridazin-3-yl)phenyl)urea]: the MIC in assay [1] is over 128 µg/mL; in assay [2] (setting [5]) it was over 128 µg/mL; in assay [3], over 128 µg/mL; in assay [4] it was over 128 µg/mL; in the assay on C. albicans (ATCC 64124) (ATCC64124, 24 h), over 128 µg/mL.

Turning to `O=C(Nc1cccc(Nc2ccc(=O)[nH]n2)c1)Nc1ccc(Cl)c(C(F)(F)F)c1` [MY50, 1-(4-chloro-3-(trifluoromethyl)phenyl)-3-(3-((6-oxo-1,6-dihydropyridazin-3-yl)amino)phenyl)urea], the MIC was over 128 µg/mL in assay [1]; over 128 µg/mL in assay [2] (setting [5]); over 128 µg/mL in assay [3]; 128 µg/mL (≈ 302 µM) in assay [4]; over 128 µg/mL in the assay with C. albicans (ATCC 64124) (ATCC64124, 24 h).

On to `Cc1cccc(NC(=O)Nc2ccc(Oc3ccc(=O)[nH]n3)cc2)c1` [MY32, 1-(4-((6-oxo-1,6-dihydropyridazin-3-yl)oxy)phenyl)-3-(m-tolyl)urea], for which the MIC in assay [1] was over 128 µg/mL; in assay [2] (setting [5]) it was over 128 µg/mL; in assay [3], over 128 µg/mL; in assay [4] it was over 128 µg/mL; in the assay on C. albicans (ATCC 64124) (ATCC64124, 24 h), over 128 µg/mL.

`Nc1nc(=O)[nH]cc1F` [5-Fluorocytosine, 5-fluorocytosine, reference compound]: the MIC in the assay on C. albicans (ATCC 64124) (ATCC64124, RPMI 1640, 24 hours) turned out to be 0.25 µg/mL (≈ 1.94 µM).
